Assay results as given in the NIST ThermoML archive (doi:10.1016/j.jct.2012.08.023).

Test: mn = molality of the nth substance listed, in mol/kg
Conditions: 101.3 kPa, Liquid; for speed of sound: Single path-length method; for mass density: Vibrating tube method

COCCOCCO [2-(2-methoxyethoxy)ethanol] + O
Conditions	mass density, 288.15 K [kg/m3]	mass density, 298.15 K [kg/m3]	mass density, 308.15 K [kg/m3]	speed of sound, 288.15 K [m/s]	speed of sound, 298.15 K [m/s]	speed of sound, 308.15 K [m/s]
m1 = 0.1113	999.888	997.716	994.536	1477.1	1505.1	1526.8
m1 = 0.1346	1000.02	997.84	994.655	1480.4	1508.5	1529.1
m1 = 0.3285	1001.11	998.835	995.615	1494.2	1519.7	1538.8
m1 = 0.4005	1001.49	999.182	995.953	1498.2	1523.4	1541.4
m1 = 0.62	1002.6	1000.22	996.952	1516.3	1537.8	1553.6
m1 = 0.7114	1003.02	1000.62	997.341	1523.8	1544.5	1558.8
m1 = 0.9906	1004.26	1001.81	998.476	1539.6	1556.8	1569.1
m1 = 1.052	1004.52	1002.03	993.955	1548	1497.7	1574.7

COCCOCCOCCO [2-[2-(2-methoxyethoxy)ethoxy]ethanol] + O
Conditions	mass density, 288.15 K [kg/m3]	mass density, 298.15 K [kg/m3]	mass density, 308.15 K [kg/m3]	speed of sound, 288.15 K [m/s]	speed of sound, 298.15 K [m/s]	speed of sound, 308.15 K [m/s]
m1 = 0.0992	1000.76	998.595	995.371	1476.9	1505.2	1526.8
m1 = 0.2191	1002.54	1000.32	997.022	1490.1	1516.8	1535.9
m1 = 0.4289	1005.5	1003.2	999.755	1510.7	1533	1549.8
m1 = 0.5088	1006.57	1004.24	1000.75	1517.7	1539.4	1554.7
m1 = 0.5825	1007.53	1005.17	1001.64	1525	1544.9	1559.5
m1 = 0.7077	1009.12	1006.71	1003.1	1537.2	1555.8	1568.3
m1 = 0.7956	1010.2	1007.75	1004.09	1543.9	1560.4	1572.2
m1 = 0.9789	1012.35	1009.85	1006.07	1467.3	1570.5	1580

COCCO [2-methoxyethan-1-ol] + O
Conditions	mass density, 288.15 K [kg/m3]	mass density, 298.15 K [kg/m3]	mass density, 308.15 K [kg/m3]	speed of sound, 288.15 K [m/s]	speed of sound, 298.15 K [m/s]	speed of sound, 308.15 K [m/s]
m1 = 0.1766	999.359	997.221	994.075	1475.3	1504.9	1526.1
m1 = 0.3377	999.461	997.304	994.169	1487.3	1511.2	1531.6
m1 = 0.3987	999.495	997.331	994.202	1486.9	1513.8	1533.1
m1 = 0.5117	999.548	997.377	994.256	1492.9	1518	1537
m1 = 0.6355	999.593	997.421	994.305	1498.1	1522.9	1540.5
m1 = 0.7947	999.638	997.462	994.361	1506.8	1529.3	1546
m1 = 1.012	999.666	997.507	994.412	1518.1	1539.1	1553.7

CCCCn1cc[n+](C)c1.[Br-] [1-butyl-3-methylimidazolium bromide] + O
Conditions	mass density, 288.15 K [kg/m3]	mass density, 298.15 K [kg/m3]	mass density, 308.15 K [kg/m3]	speed of sound, 288.15 K [m/s]	speed of sound, 298.15 K [m/s]	speed of sound, 308.15 K [m/s]
m1 = 0.0915	996.409	996.531	991.528	1490.7	1516.7	1535.5
m1 = 0.0969	1001.56	999.293	996.365	1489.1	1517	1537.9
m1 = 0.1014	989.502	997.101	992.565	1490.9	1520.2	1540.2
m1 = 0.2656	1010.44	1007.45	1005.51	1511.6	1536.2	1554.5
m1 = 0.2803	1007.11	1005.82	1002.41	1512.3	1536.8	1555.3
m1 = 0.2869	1010.49	1005.51	1001.76	1512.3	1536.8	1555.3
